Where two headings read alike, the source gives them in different places. Marks after values point to notes of the source that are not given here.
What was measured:
Uromyces appendiculatus = assay: In vivo preventive test on Uromyces appendiculatus (bean rust); conditions: bean plants, preventive spray, evaluated 11 days after inoculation
Description: The young plants of bean are treated by spraying the active ingredient prepared as described above. Control plants are treated only with an aqueous solution of acetone/Dimethyl sulfoxide/Tween®. After 24 hours, the plants are contaminated by spraying the leaves with an aqueous suspension of Uromyces appendiculatus spores.

Sphaerotheca fuliginea = assay: In vivo preventive test on Sphaerotheca fuliginea (powdery mildew on cucurbits); conditions: gherkin plants, preventive spray, evaluated 15 days after inoculation
Description: The young plants of gherkin are treated by spraying the active ingredient prepared as described above. Control plants are treated only with an aqueous solution of acetone/Dimethyl sulfoxide/Tween®. After 24 hours, the plants are contaminated by spraying the leaves with an aqueous suspension of Sphaerotheca fuliginea spores.

Leptosphaeria nodorum = Leptosphaeria nodorum test (wheat)/preventive; type: in vivo; conditions: 500 ppm of active ingredient, preventive, evaluated 8 days after inoculation
Description: Solvent: 49 parts by weight of N,N-dimethylacetamide Emulsifier: 1 part by weight of alkylaryl polyglycol ether To produce a suitable preparation of active compound, 1 part by weight of active compound or active compound combination is mixed with the stated amounts of solvent and emulsifier, and the concentrate is diluted with water to the desired concentration. To test for preventive activity, young plants are sprayed with the preparation of active compound or active compound combination at the stated rate of application. After the spray coating has been dried, the plants are sprayed with a spore suspension of Leptosphaeria nodorum. […] The plants are placed in the greenhouse at a temperature of approximately 22° C. and a relative atmospheric humidity of approximately 80%.

Puccinia recondita = assay: In vivo preventive test on Puccinia recondita (brown rust on wheat); conditions: wheat plants, preventive spray, evaluated 11 days after inoculation
Description: The young plants of wheat are treated by spraying the active ingredient prepared as described above. Control plants are treated only with an aqueous solution of acetone/Dimethyl sulfoxide/Tween®. After 24 hours, the plants are contaminated by spraying the leaves with an aqueous suspension of Puccinia recondita spores.

[1] = system: Blumeria graminis fsp. hordei; assay: Blumeria test (barley)/preventive; type: in vivo; conditions: 500 ppm of active ingredient, preventive, evaluated 7 days after inoculation
Description: Solvent: 49 parts by weight of N,N-dimethylacetamide Emulsifier: 1 part by weight of alkylaryl polyglycol ether To produce a suitable preparation of active compound, 1 part by weight of active compound or active compound combination is mixed with the stated amounts of solvent and emulsifier, and the concentrate is diluted with water to the desired concentration. To test for preventive activity, young plants are sprayed with the preparation of active compound or active compound combination at the stated rate of application. After the spray coating has been dried, the plants are dusted with spores of Blumeria graminis fsp. hordei. The plants are placed in the greenhouse at a temperature of approximately 18° C. and a relative atmospheric humidity of approximately 80% to promote the development of mildew pustules.

Septoria tritici = assay: In vivo preventive test on Septoria tritici (leaf spot on wheat); conditions: wheat plants, preventive spray, evaluated 24 days after inoculation
Description: The young plants of wheat are treated by spraying the active ingredient prepared as described above. Control plants are treated only with an aqueous solution of acetone/Dimethyl sulfoxide/Tween®. After 24 hours, the plants are contaminated by spraying the leaves with an aqueous suspension of Septoria tritici spores.

Fusarium culmorum = assay: Fusarium culmorum-test (wheat)/preventive; type: in vivo; conditions: 500 ppm of active ingredient, preventive, evaluated 5 days after inoculation
Description: Solvent: 49 parts by weight of N,N-dimethylacetamide
Emulsifier: 1 part by weight of alkylaryl polyglycol ether
To produce a suitable preparation of active compound, 1 part by weight of active compound or active compound combination is mixed with the stated amounts of solvent and emulsifier, and the concentrate is diluted with water to the desired concentration.
To test for preventive activity, young plants are sprayed with the preparation of active compound or active compound combination at the stated rate of application. After the spray coating has been dried, the plants are slightly injured by using a sandblast and afterwards they are sprayed with a conidia suspension of Fusarium culmorum.
The plants are placed in the greenhouse under a translucent incubation cabinet at a temperature of approximately 22° C. and a relative atmospheric humidity of approximately 100%.
The test is evaluated 5 days after the inoculation. 0% means an efficacy which corresponds to that of the untreated control, while an efficacy of 100% means that no disease is observed.

Botrytis cinerea = assay: In vivo preventive test on Botrytis cinerea (grey mould); conditions: gherkin plants, preventive spray, evaluated 4 to 5 days after inoculation
Description: The young plants of gherkin are treated by spraying the active ingredient prepared as described above. Control plants are treated only with an aqueous solution of acetone/Dimethyl sulfoxide/Tween®. After 24 hours, the plants are contaminated by spraying the leaves with an aqueous suspension of Botrytis cinerea spores. The contaminated gherkin plants are incubated for 4 to 5 days at 17° C. and at 90% relative humidity.

Pyrenophora teres = assay: In vivo preventive test on Pyrenophora teres (net blotch on barley); conditions: barley plants, preventive spray, evaluated 14 days after inoculation
Description: The young plants of barley are treated by spraying the active ingredient prepared as described above. Control plants are treated only with an aqueous solution of acetone/Dimethyl sulfoxide/Tween®. After 24 hours, the plants are contaminated by spraying the leaves with an aqueous suspension of Pyrenophora teres spores.

Pyricularia oryzae = type: in vivo; conditions: 500 ppm of active ingredient; rice, preventive; evaluated 8 days after inoculation
[2] = system: Fusarium nivale (var. majus); assay: Fusarium nivale (var. majus)-test (wheat)/preventive; type: in vivo; conditions: 500 ppm of active ingredient, preventive, evaluated 5 days after inoculation
Description: Solvent: 49 parts by weight of N,N-dimethylacetamide Emulsifier: 1 part by weight of alkylaryl polyglycol ether To produce a suitable preparation of active compound, 1 part by weight of active compound or active compound combination is mixed with the stated amounts of solvent and emulsifier, and the concentrate is diluted with water to the desired concentration. To test for preventive activity, young plants are sprayed with the preparation of active compound or active compound combination at the stated rate of application. After the spray coating has been dried, the plants are slightly injured by using a sandblast and afterwards they are sprayed with a conidia suspension of Fusarium nivale (var. majus).

Fusarium graminearum = type: in vivo; conditions: 500 ppm of active ingredient; barley, preventive; evaluated 5 days after inoculation
Phakopsora pachyrhizi = assay: Phakopsora test (soybeans)/preventive; type: in vivo; conditions: 10 ppm of active ingredient, preventive, evaluated 7 days after inoculation
[3] = method [a]: LC-MS at pH 2.7, 0.1% formic acid in water / acetonitrile gradient

Structure (SMILES): CC(C)(C)C(O)(Cc1ccc(Cl)nc1)Cn1cncn1 (stereo not shown) [Example I-2]
- LogP (pH 2.7): 1.98^[b]; 1.98^[a]
- LogP (pH 7.8): 1.98^[b]; 1.98^[a]
- Eff. % (Uromyces appendiculatus; 500 ppm of active ingredient): 77%
- Eff. % (Sphaerotheca fuliginea; 500 ppm of active ingredient): 98%

Structure (SMILES): CCC(C)(C)C(O)(Cc1ccncc1Cl)Cn1cncn1 (stereo not shown) [Example I-5]
- LogP (pH 2.7): 2.13^[a]
- Eff. % (Leptosphaeria nodorum): 100%
- Eff. % (Puccinia recondita; 100 ppm of active ingredient): 90%
- Eff. % [1]: 100%
- Eff. % (Septoria tritici; 100 ppm of active ingredient): 97%
- Eff. % (Uromyces appendiculatus; 100 ppm of active ingredient): 100%
- Eff. % (Fusarium culmorum): 100%
- Eff. % (Botrytis cinerea; 100 ppm of active ingredient): 89%
- Eff. % (Pyrenophora teres; 100 ppm of active ingredient): 83%
- Eff. % (Pyricularia oryzae): 93%
- Eff. % [2]: 100%
- Eff. % (Sphaerotheca fuliginea; 100 ppm of active ingredient): 100%
- Eff. % (Fusarium graminearum): 100%

Structure (SMILES): CCC(C)(C)C(O)(Cc1ccncc1F)Cn1cncn1 (stereo not shown) [Example I-7]
- LogP [3]: 1.73^[a]
- Eff. % (Leptosphaeria nodorum): 100%
- Eff. % (Puccinia recondita; 100 ppm of active ingredient): 81%
- Eff. % [1]: 100%
- Eff. % (Septoria tritici; 100 ppm of active ingredient): 81%
- Eff. % (Uromyces appendiculatus; 100 ppm of active ingredient): 100%
- Eff. % (Fusarium culmorum): 100%
- Eff. % (Botrytis cinerea; 100 ppm of active ingredient): 97%
- Eff. % (Pyricularia oryzae): 89%
- Eff. % [2]: 100%
- Eff. % (Sphaerotheca fuliginea; 100 ppm of active ingredient): 100%
- Eff. % (Fusarium graminearum): 100%

Structure (SMILES): CC(C)(C)C(O)(Cc1ccc2ccccc2n1)Cn1cncn1 (stereo not shown) [Example I-8]
- LogP [3]: 1.51^[a]
- Eff. % (Sphaerotheca fuliginea; 100 ppm of active ingredient): 79%

Structure (SMILES): CC(C)(C)C(O)(Cc1cc(Cl)nc(Cl)c1)Cn1cncn1 (stereo not shown) [Example I-9]
- LogP (pH 2.7): 2.64^[a]
- Eff. % (Sphaerotheca fuliginea; 100 ppm of active ingredient): 97%

Structure (SMILES): CC(C)(C)C(O)(Cc1ccnc2ccccc12)Cn1cncn1 (stereo not shown) [Example I-10]
- LogP (pH 2.7): 1.17^[a]
- Eff. % (Uromyces appendiculatus; 100 ppm of active ingredient): 85%
- Eff. % (Sphaerotheca fuliginea; 100 ppm of active ingredient): 97%

Structure (SMILES): CCC(C)(C)C(O)(Cc1ccnc(Cl)c1)Cn1cncn1 (stereo not shown) [Example I-14]
- LogP (pH 2.7): 2.27^[a]
- Eff. % (Botrytis cinerea; 100 ppm of active ingredient): 87%
- Eff. % (Sphaerotheca fuliginea; 100 ppm of active ingredient): 100%

Structure (SMILES): CC(C)(C)C(O)(Cc1ccnc(Cl)c1)Cn1cncn1 (stereo not shown) [Example I-15]
- LogP (pH 2.7): 1.93^[a]
- Eff. % (Uromyces appendiculatus; 100 ppm of active ingredient): 91%
- Eff. % (Sphaerotheca fuliginea; 100 ppm of active ingredient): 100%

Structure (SMILES): CC(C)(C)C(O)(Cc1cc(Cl)ncc1F)Cn1cncn1 (stereo not shown) [Example I-16]
- LogP (pH 2.7): 2.16^[a]
- Eff. % (Uromyces appendiculatus; 100 ppm of active ingredient): 84%
- Eff. % (Sphaerotheca fuliginea; 100 ppm of active ingredient): 100%

Structure (SMILES): CCOC(=O)OC(Cc1cccnc1Cl)(Cn1cncn1)C(C)(C)C (stereo not shown) [Example I-24]
- LogP (pH 2.7): 2.67
- LogP (pH 7.8): 2.56
- Eff. % (Puccinia recondita; 500 ppm of active ingredient): 86%
- Eff. % (Septoria tritici; 500 ppm of active ingredient): 100%
- Eff. % (Uromyces appendiculatus; 500 ppm of active ingredient): 97%
- Eff. % (Pyrenophora teres; 500 ppm of active ingredient): 75%
- Eff. % (Sphaerotheca fuliginea; 500 ppm of active ingredient): 100%

Structure (SMILES): CC(C)(C)C(O)(Cc1cncc(Oc2ccc(Cl)cc2)n1)Cn1cncn1 (stereo not shown) [Example I-25]
- LogP (pH 2.7): 2.98^[a]
- Eff. % (Puccinia recondita; 500 ppm of active ingredient): 71%

Structure (SMILES): COC(C)(C)C(O)(Cc1ccncc1Cl)Cn1cncn1 (stereo not shown) [Example I-26]
- LogP (pH 2.7): 1.48^[a]
- Eff. % (Puccinia recondita; 500 ppm of active ingredient): 89%
- Eff. % (Septoria tritici; 500 ppm of active ingredient): 97%
- Eff. % (Uromyces appendiculatus; 500 ppm of active ingredient): 100%
- Eff. % (Pyrenophora teres; 500 ppm of active ingredient): 71%
- Eff. % (Sphaerotheca fuliginea; 500 ppm of active ingredient): 100%

Structure (SMILES): CC(C)(C)C(O)(Cc1ccnc(Cl)c1F)Cn1cncn1 (stereo not shown) [Example I-27]
- LogP (pH 2.7): 2.16^[a]
- Eff. % (Leptosphaeria nodorum): 88%
- Eff. % (Puccinia recondita; 500 ppm of active ingredient): 98%
- Eff. % [1]: 100%
- Eff. % (Septoria tritici; 500 ppm of active ingredient): 97%
- Eff. % (Uromyces appendiculatus; 500 ppm of active ingredient): 100%
- Eff. % (Fusarium culmorum): 100%
- Eff. % (Botrytis cinerea; 500 ppm of active ingredient): 100%
- Eff. % (Pyrenophora teres; 500 ppm of active ingredient): 97%
- Eff. % [2]: 100%
- Eff. % (Sphaerotheca fuliginea; 500 ppm of active ingredient): 100%
- Eff. % (Phakopsora pachyrhizi): 75%
- Eff. % (Fusarium graminearum): 100%

Structure (SMILES): OC(Cc1ccncc1Cl)(CC1CC1)Cn1cncn1 (stereo not shown) [Example I-30]
- LogP (pH 2.7): 1.43^[a]
- Eff. % (Leptosphaeria nodorum): 88%
- Eff. % (Puccinia recondita; 500 ppm of active ingredient): 94%
- Eff. % [1]: 100%
- Eff. % (Septoria tritici; 500 ppm of active ingredient): 100%
- Eff. % (Uromyces appendiculatus; 500 ppm of active ingredient): 100%
- Eff. % (Pyrenophora teres; 500 ppm of active ingredient): 71%
- Eff. % [2]: 100%
- Eff. % (Sphaerotheca fuliginea; 500 ppm of active ingredient): 100%

Structure (SMILES): CC(C)CCC(O)(Cc1ccncc1Cl)Cn1cncn1 (stereo not shown) [Example I-31]
- LogP (pH 2.7): 2.00^[a]
- Eff. % (Puccinia recondita; 500 ppm of active ingredient): 89%
- Eff. % (Septoria tritici; 500 ppm of active ingredient): 100%
- Eff. % (Uromyces appendiculatus; 500 ppm of active ingredient): 96%
- Eff. % (Sphaerotheca fuliginea; 500 ppm of active ingredient): 100%

Structure (SMILES): CCOC(C)(C)C(O)(Cc1ccncc1Cl)Cn1cncn1 (stereo not shown) [Example I-32]
- LogP (pH 2.7): 1.90
- LogP (pH 7.8): 2.04
- Eff. % (Puccinia recondita; 500 ppm of active ingredient): 83%
- Eff. % (Uromyces appendiculatus; 500 ppm of active ingredient): 99%
- Eff. % (Sphaerotheca fuliginea; 500 ppm of active ingredient): 98%

Structure (SMILES): CCC(C)(C)C1(Cc2c(Cl)cncc2Cl)CO1 (stereo not shown) [XII-22]
- LogP [3]: 4.41^[a]

Structure (SMILES): CCCC(C)(C)C1(Cc2ccncc2Cl)CO1 (stereo not shown) [XII-23]
- LogP [3]: 2.03^[a]

Reference: patent publication US9668481B2, “Triazole derivatives” (priority 2013, dated 2017)
